Assay type in all cases: ADME, organism-based
A short description of series [1]: Volume of distribution in rat. The note with it: in vivo.
The nature of series [2]: Clearance in rat. The note with it: in vivo.
Series [3] is described as follows: Oral bioavailability in rat. Particulars: in vivo.
The nature of series [4]: Tmax in rat plasma.
A short description of series [5]: Terminal half life in rat. The note with it: in vivo, read-out: beta t1/2 (converted).

Data on one compound can be found in ChEMBL document CHEMBL1152564, “Antagonists of the human A(2A) receptor. Part 6: Further optimization of pyrimidine-4-carboxamides” (Bioorg Med Chem, 2009).

Structures are written as SMILES.

Turning to `Cc1cccc(CNC(=O)c2cc(-c3ccc(C)o3)nc(N)n2)n1`, the volume of distribution (Vd) in series [1] was 0.7 L/kg. For the same compound, the clearance in series [2] was 32.5 mL/min/kg. Besides, the bioavailability in series [3] stood at 3%. The Tmax in series [4] was 0.25 h. The half-life in series [5] was 3 h.

Usually Vd stands for the apparent volume that relates the amount in the body to the concentration in plasma or blood. As usually defined, the clearance is the volume of plasma or blood freed of the substance per unit of time. The low end stands for a low capacity for elimination, the high end for a high capacity for elimination. Usually bioavailability stands for the share of a dose that reaches the circulation, judged against a reference dose that is usually intravenous. In general, Tmax refers to the time from dosing to the highest level.
